US20240294543A1, “CYCLOHEPTA-THIENO-DIAZEPINE DERIVATIVES AS GABA A GAMMA1 PAM” (Hoffmann-La Roche Inc., priority 2021, published 2024)
Like-named read-outs stand apart in the source and are kept apart here.

How the values were obtained:
[1] = target: human GABAA α1β2γ1 receptor (Homo sapiens (Human), UniProt P14867+Q8N1C3); experiment: Radioligand binding assay, competition for [3H]RO7239181, γ1-containing GABAA subtypes
[2] = target: human GABAA α2β2γ1 receptor (Homo sapiens (Human), UniProt P47869+Q8N1C3); experiment: as above
[3] = target: human GABAA α1β3γ2 receptor (Homo sapiens (Human), UniProt P14867+P18507); experiment: Radioligand binding assay, competition for [3H]Flumazenil, γ2-containing GABAA subtypes; conditions: for γ2/γ1 Selectivity Ratio: Ki α1β3γ2 (nM)/Ki α2β2γ1 (nM); for LogSel: Log[Ki α1β3γ2 (nM)/Ki α2β2γ1 (nM)]
Summary of the method: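 Competition against [3H]Flumazenil binding in HEK293F cells transiently expressing human α1β3γ2 receptors, pellets resuspended in mannitol buffer pH 7,2-7,4. Incubated to equilibrium 1 hour at 4° C, filtered and washed with ice-cold 50 mM Tris pH 7.5, bound radioactivity by liquid scintillation counting. Ki values are means of two determinations.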

[4] = Ki h-GABAA α1β2γ1, membranes of HEK293F cells, [3H]RO7239181 20-30 nM, Table 1
[5] = Ki h-GABAA α2β2γ1, membranes of HEK293F cells, [3H]RO7239181 20-30 nM, Table 1
[6] = Ki h-GABAA α2β2γ1, membranes of HEK293F cells, [3H]RO7239181 20-30 nM, Table 2

| Compound | Ki [1, 4] | Ki [2, 5] | Ki [2, 6] | Ki [3] | γ2/γ1 Selectivity Ratio ([3]; Table 1) | LogSel ([3]; Table 1) | Ki ([1]; Ki h-GABAA α1β2γ1, Table 3, reference compounds and examples) | Ki ([2]; Ki h-GABAA α2β2γ1, Table 3, reference compounds and examples) | γ2/γ1 Selectivity Ratio ([3]; Table 3) | LogSel ([3]; Table 3) | Ki ([3]; read-out: Ki h-GABAA α1β3γ2, Table 3, reference compounds and examples) | Ki ([3]; HEK293F cells, [3H]Flumazenil 1 nM, Table 1, read-out: Ki h-GABAA α1β3γ2) |
| --- | --- | --- | --- | --- | --- | --- | --- | --- | --- | --- | --- | --- |
| Cc1nnc2n1-c1sc3c(c1C(c1c(F)cccc1F)=N[C@H]2C)OCCCC3 [Example 33, (7S)-9-(2,6-difluorophenyl)-3,7-dimethyl-12-oxa-18-thia-2,4,5,8-tetrazatetracyclo[8.8.0.02,6.011,17]octadeca-1(10),3,5,8,11(17)-pentaene] | 380 nM | 55.9 nM | 55.9 nM | 3720 nM | 66.5 | 1.82 | – | – | – | – | – | – |
| Cc1nnc2n1-c1sc3c(c1C(c1c(F)cccc1F)=N[C@H]2C)COC[C@H](C)O3 [Example 30, (7S,15S)-9-(2,6-difluorophenyl)-3,7,15-trimethyl-13,16-dioxa-18-thia-2,4,5,8-tetrazatetracyclo[8.8.0.02,6.011,17]octadeca-1(10),3,5,8,11(17)-pentaene] | 205 nM | 36.9 nM | 36.9 nM | 1830 nM | 49.6 | 1.70 | – | – | – | – | – | – |
| Cc1nnc2n1-c1sc3c(c1C(c1c(F)cccc1F)=N[C@H]2C)CCCC[C@@H]3F (single isomer, unassigned) [Example 12] | 45.7 nM | 33.7 nM | 33.7 nM | 1010 nM | 29.9 | 1.48 | – | – | – | – | – | – |
| Cc1nnc2n1-c1sc3c(c1C(c1c(F)cccc1F)=N[C@H]2C)CCC(F)C(F)C3 (single isomer, unassigned) [Example 34] | 103 nM | 31.7 nM | 31.7 nM | 10800 nM | 340.3 | 2.53 | – | – | – | – | – | – |
| Cc1nnc2n1-c1sc3c(c1C(c1c(F)cccc1F)=N[C@H]2C)CC[C@@H](F)CC3 (single isomer, unassigned) [Example 15] | 131 nM | 42.8 nM | 42.8 nM | 3530 nM | 82.5 | 1.92 | – | – | – | – | – | – |
| Cc1nnc2n1-c1sc3c(c1C(c1c(F)cccc1F)=NC2)CCCCC3 [Example 1, 9-(2,6-difluorophenyl)-3-methyl-18-thia-2,4,5,8-tetrazatetracyclo[8.8.0.02,6.011,17]octadeca-1(10),3,5,8,11(17)-pentaene] | 20 nM | 7.5 nM | 7.5 nM | 374 nM | 49.6 | 1.70 | 19.7 nM | 7.5 nM | 49.6 | 1.7 | 374 nM | – |
| C[C@@H]1N=C(c2c(F)cccc2F)c2c(sc3c2COCCO3)-n2nc(C(=O)NC[C@](C)(O)C(F)(F)F)nc21 [Example 47, (7S)-9-(2,6-difluorophenyl)-7-methyl-N-[(2S)-3,3,3-trifluoro-2-hydroxy-2-methyl-propyl]-13,16-dioxa-18-thia-2,3,5,8-tetrazatetracyclo[8.8.0.02,6.011,17]octadeca-1(10),3,5,8,11(17)-pentaene-4-carboxamide] | 93.4 nM | 20.3 nM | 20.3 nM | – | 174.6 | 2.24 | – | – | – | – | – | 3540 nM |
